Measured values from US7300939B2, “Substituted 1-propiolylpiperazine compounds, their preparation and use” (Gruenenthal GmbH, priority 2005, dated 2007).
Counter-ions that a name gives are not always drawn.

Target: T1, mGluR5 receptor (Sus scrofa, UniProt I3LUI7)
T1 construct: from tissue; host or cells: pig brain halves without medulla, cerebellum and pons
Assay: [3H]-MPEP binding in the mGluR5 receptor binding assay (pig brain homogenate)
Conditions: for mGluR5-receptor (% inhibition 10 μM) in pigs: pig brain homogenate, 5 nM [3H]-MPEP; for IC50: Table II, unit inferred
Procedure: I. Method the Determination of the Inhibition of the [^3H]-MPEP Binding in the mGluR5 Receptor Binding Assay
Pig brain homogenate is prepared by homogenization (Polytron PT 3000, Kinematica AG, 10,000 revolutions per minute 90 seconds) of pig brain halves without medulla, cerebellum and pons in a buffer solution having a pH of 8.0 (30 mM of hepes, Sigma, order no. H3375+1 tablet of Complete to 100 ml, Roche Diagnostics, order no. 1836145) in a ratio of 1:20 (brain weight/volume) and differential centrifugation at 900×g and 40,000×g. In each case 450 μg of protein from brain homogenate are incubated with 5 nM [^3H]-MPEP (Tocris, order no. R1212) (MPEP=2-methyl-6-(3-methoxyphenyl)ethynylpyridine) and the compounds to be investigated (10 μM in the test) in a buffer solution (as above) in 250 μl incubation batches in 96-well microtiter plates at room temperature 60 min.
Thereafter, the batches are filtered with the aid of a Brandel cell harvester (Brandel, Robotic 9600 model) onto Unifilter plates with glass fiber filter mats (Perkin Elmer, order no. 6005177) and then rinsed with buffer solution (as above) 3 times with 250 μl per sample each time. The filter plates are then dried 60 min at 55° C. 30 μl Ultima Gold™ scintillator (Packard BioScience, order no. 6013159) are subsequently added per well and, after 3 hours, the samples are measured on a β-counter (Mikrobeta, Perkin Elmer). The non-specific binding is determined by addition of 10 μM of MPEP (Tocris, order no. 1212).

T1 sequence (I3LUI7 19-1212): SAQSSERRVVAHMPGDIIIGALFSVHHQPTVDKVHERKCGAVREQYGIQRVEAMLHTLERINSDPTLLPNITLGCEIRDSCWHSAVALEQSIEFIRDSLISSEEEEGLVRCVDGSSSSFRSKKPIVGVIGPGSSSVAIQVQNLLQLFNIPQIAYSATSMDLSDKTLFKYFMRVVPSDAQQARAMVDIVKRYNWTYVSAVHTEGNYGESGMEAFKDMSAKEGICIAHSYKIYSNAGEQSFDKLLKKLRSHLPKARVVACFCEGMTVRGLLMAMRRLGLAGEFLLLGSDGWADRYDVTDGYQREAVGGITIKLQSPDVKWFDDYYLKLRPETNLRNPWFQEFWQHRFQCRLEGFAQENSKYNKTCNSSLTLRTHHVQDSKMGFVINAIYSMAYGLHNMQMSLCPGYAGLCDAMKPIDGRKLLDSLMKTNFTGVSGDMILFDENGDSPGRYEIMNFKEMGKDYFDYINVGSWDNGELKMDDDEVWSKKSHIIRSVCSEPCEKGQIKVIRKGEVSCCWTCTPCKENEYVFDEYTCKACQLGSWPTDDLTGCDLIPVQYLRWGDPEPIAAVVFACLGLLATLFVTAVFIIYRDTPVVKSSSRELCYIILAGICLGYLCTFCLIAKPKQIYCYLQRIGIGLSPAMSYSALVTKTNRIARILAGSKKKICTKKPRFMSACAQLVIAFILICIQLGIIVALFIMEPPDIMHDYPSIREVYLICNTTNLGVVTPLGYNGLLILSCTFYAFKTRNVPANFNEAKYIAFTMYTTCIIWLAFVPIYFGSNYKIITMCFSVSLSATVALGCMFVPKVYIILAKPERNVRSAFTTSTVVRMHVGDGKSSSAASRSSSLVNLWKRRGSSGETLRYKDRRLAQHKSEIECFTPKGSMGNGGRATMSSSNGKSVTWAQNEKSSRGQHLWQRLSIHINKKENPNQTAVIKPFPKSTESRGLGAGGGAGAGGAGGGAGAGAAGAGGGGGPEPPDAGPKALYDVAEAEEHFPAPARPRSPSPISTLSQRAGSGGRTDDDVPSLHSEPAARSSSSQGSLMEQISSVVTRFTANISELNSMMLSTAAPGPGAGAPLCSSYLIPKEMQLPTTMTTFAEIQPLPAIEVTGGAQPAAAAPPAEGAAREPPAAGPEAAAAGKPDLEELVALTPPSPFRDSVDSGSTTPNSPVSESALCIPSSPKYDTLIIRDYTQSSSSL

Compound	mGluR5-receptor (% inhibition 10 μM) in pigs	IC50
CCOC(=O)c1cccc(C#CC(=O)N2CCN(c3nccs3)CC2)c1 [Example AAA3, 4-(Thiazol-2-yl)-1-(3-(3-carboxyphenyl)propiolyl)piperazine ethyl ester]	40%	–
O=C(C#Cc1ccccc1)N1CCN(c2nc(-c3ccccc3)ns2)CC1 [Example AAA82, 4-(3-Phenyl-1,2,4-thiadiazol-5-yl)-1-(3-phenylpropiolyl)piperazine]	37%	–
Cc1csc(N2CCN(C(=O)C#Cc3ccccc3)CC2)n1 [Example AAA92, 4-(4-Methylthiazol-2-yl)-1-(3-phenylpropiolyl)piperazine]	87%	–
O=C(C#Cc1cccc(-c2ccccc2)c1)N1CCN(c2nccs2)CC1 [Example AAA37, 4-(Thiazol-2-yl)-1-(3-biphenyl-3-ylpropiolyl)piperazine]	45%	–
O=C(C#Cc1ccsc1)N1CCN(c2nccs2)CC1 [Example AAA11, 4-(Thiazol-2-yl)-1-(3-(3-thienyl)propiolyl)piperazine]	52%	–
CC1CN(c2nccs2)CCN1C(=O)C#Cc1ccccc1 (centres unmarked) [Example AAA63, 2-Methyl-4-(thiazol-2-yl)-1-(3-phenylpropiolyl)piperazine]	89%	–
Nc1cccc(C#CC(=O)N2CCN(c3nccs3)CC2)c1 [Example AAA7, 4-(Thiazol-2-yl)-1-(3-(3-aminophenyl)propiolyl)piperazine]	91%	–
Cc1cccc(C#CC(=O)N2CCN(c3nccs3)CC2C)c1.Cl (centres unmarked) [Example AAA67, 2-Methyl-4-(thiazol-2-yl)-1-(3-(3-tolyl)propiolyl)piperazine hydrochloride]	94%	–
O=Cc1cccc(C#CC(=O)N2CCN(c3nccs3)CC2)c1 [Example AAA30, 4-(Thiazol-2-yl)-1-(3-(3-formylphenyl)propiolyl)piperazine]	91%	–
O=C(C#Cc1cccc(C(F)(F)F)c1)N1CCN(c2nccs2)CC1 [Example AAA58, 4-(Thiazol-2-yl)-1-(3-(3-trifluoromethylphenyl)propiolyl)piperazine hydrochloride]	–	240 nM
CC(C)(C)c1nsc(N2CCN(C(=O)C#Cc3cccs3)CC2)n1 [CCC16, 4-(3-tert-Butyl-1,2,4-thiadiazol-5-yl)-1-(3-(thiophen-2-yl)propiolyl)piperazine]	33%	–
CC1CN(c2nccs2)CCN1C(=O)C#Cc1ccccc1.Cl (centres unmarked) [Example AAA66, 2-Methyl-4-(thiazol-2-yl)-1-(3-phenylpropiolyl)piperazine hydrochloride]	93%	–
Cc1nc(N2CCN(C(=O)C#Cc3ccccc3)CC2)sc1C [Example AAA89, 4-(4,5-Dimethylthiazol-2-yl)-1-(3-phenylpropiolyl)piperazine]	86%	–
O=C(C#Cc1ccc2ccccc2c1)N1CCN(c2nccs2)CC1 [Example AAA38, 4-(Thiazol-2-yl)-1-(3-naphth-2-ylpropiolyl)piperazine]	82%	–
COCc1cccc(C#CC(=O)N2CCN(c3nccs3)CC2)c1 [Example AAA42, 4-(Thiazol-2-yl)-1-(3-(3-methoxymethylphenyl)propiolyl)piperazine]	88%	–
O=C(C#Cc1cccc(C(F)F)c1)N1CCN(c2nccs2)CC1 [Example AAA00122, 4-(Thiazol-2-yl)-1-(3-(3-difluoromethylphenyl)propiolyl)piperazine]	–	62 nM
Nc1ccc(C#CC(=O)N2CCN(c3nccs3)CC2)cc1 [Example AAA8, 4-(Thiazol-2-yl)-1-(3-(4-aminophenyl)propiolyl)piperazine]	65%	–
Cn1ccc2ccc(C#CC(=O)N3CCN(c4nccs4)CC3)cc21 [Example AAA00108, 4-(Thiazol-2-yl)-1-(3-(1-Methyl-indol-6-yl)propiolyl)piperazine]	–	1240 nM
C=Cc1cccc(C#CC(=O)N2CCN(c3nccs3)CC2)c1 [Example AAA31, 4-(Thiazol-2-yl)-1-(3-(3-ethenylphenyl)propiolyl)piperazine]	–	38 nM
CCOC(=O)c1cnc(N2CCN(C(=O)C#Cc3ccccc3)CC2)s1 [Example AAA76, 4-(5-Carboxy-thiazol-2-yl)-1-(3-phenylpropiolyl)piperazine ethyl ester]	–	170 nM
O=C(C#Cc1ccc(F)cc1)N1CCN(c2nc(-c3ccccc3)ns2)CC1 [CCC5, 4-(3-Phenyl-1,2,4-thiadiazol-5-yl)-1-(3-(4-fluorophenyl)propiolyl)piperazine]	25%	–

Compound	mGluR5-receptor (% inhibition 10 μM) in pigs	IC50
CS(=O)(=O)c1nsc(N2CCN(C(=O)C#Cc3ccccc3)CC2)n1 [Example AAA00101, 4-(3-Methansulfonyl-1,2,4-thiadiazol-5-yl)-1-(3-phenylpropiolyl)piperazine]	30%	–
Cn1ccc2cc(C#CC(=O)N3CCN(c4nccs4)CC3)ccc21 [Example AAA39, 4-(Thiazol-2-yl)-1-(3-(1-methyl-indol-5-yl)propiolyl)piperazine]	74%	–
O=C(C#Cc1ccccc1)N1CCN(c2ncc([N+](=O)[O-])s2)CC1 [Example AAA86, 4-(5-Nitrothiazol-2-yl)-1-(3-phenylpropiolyl)piperazine]	31%	–
CNc1cccc(C#CC(=O)N2CCN(c3nccs3)CC2)c1 [Example AAA00112, 4-(Thiazol-2-yl)-1-(3-(3-methylaminophenyl)propiolyl)piperazine]	–	560 nM
O=C(C#Cc1ccccc1)N1CCN(c2ncns2)CC1 [Example AAA00103, 4-(1,2,4-Thiadiazol-5-yl)-1-(3-phenylpropiolyl)piperazine]	83%	–
CN(C)C(=O)C#CC(=O)N1CCN(c2nccs2)CC1 [Example AAA00114, 4-(Thiazol-2-yl)-1-(dimethylcarbamoylpropiolyl)piperazine]	14%	–
Cc1nsc(N2CCN(C(=O)C#Cc3ccccc3)CC2)n1 [Example AAA00104, 4-(3-Methyl-1,2,4-thiadiazol-5-yl)-1-(3-phenylpropiolyl)piperazine]	91%	–
O=C(C#Cc1cccs1)N1CCN(c2nccs2)CC1 [Example AAA10, 4-(Thiazol-2-yl)-1-(3-(2-thienyl)propiolyl)piperazine]	–	980 nM
Cc1ccccc1C#CC(=O)N1CCN(c2nccs2)CC1.Cl [Example AAA53, 4-(Thiazol-2-yl)-1-(3-(2-tolyl)propiolyl)piperazine hydrochloride]	33%	–
CNC(=O)c1cnc(N2CCN(C(=O)C#Cc3ccccc3)CC2)s1 [Example AAA80, 4-(5-Methylaminocarbonylthiazol-2-yl)-1-(3-phenylpropiolyl)piperazine]	76%	–
O=C(C#Cc1ccccc1F)N1CCN(c2nccs2)CC1 [Example AAA21, 4-(Thiazol-2-yl)-1-(3-(2-fluorophenyl)propiolyl)piperazine]	–	830 nM
COC(=O)c1cccc(C#CC(=O)N2CCN(c3nccs3)CC2)c1 [Example AAA49, 4-(Thiazol-2-yl)-1-(3-(3-carboxyphenyl)propiolyl)piperazine methyl ester]	43%	–
CCOC(=O)c1csc(N2CCN(C(=O)C#Cc3ccccc3)CC2)n1 [Example AAA77, 4-(4-Carboxy-thiazol-2-yl)-1-(3-phenylpropiolyl)piperazine ethyl ester]	89%	–
Nc1ccccc1C#CC(=O)N1CCN(c2nccs2)CC1 [Example AAA6, 4-(Thiazol-2-yl)-1-(3-(2-aminophenyl)propiolyl)piperazine]	54%	–
O=C(C#Cc1cccc(F)c1)N1CCN(c2nc(-c3ccccc3)ns2)CC1 [CCC4, 4-(3-Phenyl-1,2,4-thiadiazol-5-yl)-1-(3-(3-fluorophenyl)propiolyl)piperazine]	59%	–
Cc1ccc(C#CC(=O)N2CCN(c3nccs3)CC2)cc1.Cl [Example AAA55, 4-(Thiazol-2-yl)-1-(3-(4-tolyl)propiolyl)piperazine hydrochloride]	41%	–
Cc1noc(-c2cnc(N3CCN(C(=O)C#Cc4ccccc4)CC3)s2)n1 [Example AAA00106, 4-(5-(3-Methyl-1,2,4-oxadiazol-5-yl)thiazol-2-yl)-1-(3-phenylpropiolyl)piperazine]	68%	–
CN(C)C(=O)c1cnc(N2CCN(C(=O)C#Cc3ccccc3)CC2)s1 [Example AAA81, 4-(5-Dimethylaminocarbonylthiazol-2-yl)-1-(3-phenylpropiolyl)piperazine]	72%	–
C[S+]([O-])c1cccc(C#CC(=O)N2CCN(c3nccs3)CC2)c1 (centres unmarked) [Example AAA00115, 4-(Thiazol-2-yl)-1-(3-(3-methylsulfinylphenyl)propiolyl)piperazine]	17%	–
O=C(C#CC1CCCCC1)N1CCN(c2nccs2)CC1 [Example AAA69, 4-(Thiazol-2-yl)-1-(3-cyclohexylpropiolyl)piperazine]	72%	–
